According to ChEMBL document CHEMBL3593216, “Discovery of antitubercular 2,4-diphenyl-1H-imidazoles from chemical library repositioning and rational design” (2015):
Converted amounts (≈) assume the structure as drawn.

test system: Mycobacterium tuberculosis; test: Antitubercular activity against recombinant Mycobacterium tuberculosis H37Rv expressing Vibrio harveyii luciferase gene with acetamidase promoter assessed as prevention of metabolic recovery incubated for 10 days in anaerobic environment followed by 28 hrs recovery in aerobic environment by low-oxygen recovery assay; assay type: functional; settings: not given

Structure (SMILES) | MIC90 [µM]
Fc1cc(-c2nc(-c3cccc(C(F)(F)F)c3)c[nH]2)cc(C(F)(F)F)c1 | 17.6
COc1cc(-c2nc(-c3cccc(C(F)(F)F)c3)c[nH]2)cc(C(F)(F)F)c1 | 63.7
FC(F)(F)c1cccc(-c2c[nH]c(-c3cc(C(F)(F)F)cc(C(F)(F)F)c3)n2)c1 | 11.3
Cn1cc(-c2cccc(C(F)(F)F)c2)nc1-c1cccc(C(F)(F)F)c1 | 50.7
FC(F)(F)c1cccc(-c2c[nH]c(-c3cccc(C(F)(F)F)c3)n2)c1 | 25.4

test system: Mycobacterium tuberculosis; test: Antitubercular activity against Mycobacterium tuberculosis H37Rv ATCC 27294 incubated up to 7 days measured on day 7 by microplate Alamar Blue assay; assay type: functional; settings: H37Rv ATCC 27294, 168 h

Structure (SMILES) | MIC90 [µM]
COc1ccc(-c2csc(Nc3ccc(C)cc3)n2)cc1 | 15.6 (≈ 4.62 µg/mL)
Cc1ccc(-c2nc(-c3ccccc3)c[nH]2)cc1 | 124 (≈ 29.1 µg/mL)
COc1cccc(-c2c[nH]c(-c3ccccc3)n2)c1 | 88.4 (≈ 22.1 µg/mL)
FC(F)(F)c1cccc(-c2c[nH]c(-c3ccccc3)n2)c1 | 37 (≈ 10.7 µg/mL)
COc1ccc(-c2csc(Nc3cc(Cl)cc(Cl)c3)n2)cc1 | 13 (≈ 4.57 µg/mL)
c1ccc(-c2c[nH]c(-c3ccncc3)n2)cc1 | > 128
c1ccc(-c2c[nH]c(-c3ccccc3)n2)cc1 | 128 (≈ 28.1 µg/mL)
COc1ccccc1-c1nc(-c2ccccc2)c[nH]1 | > 128
Oc1ccc(-c2nc(-c3ccccc3)c[nH]2)cc1 | > 128
FC(F)(F)Oc1cccc(-c2nc(-c3ccccc3)c[nH]2)c1 | 35.5 (≈ 10.8 µg/mL)
COc1cccc(-c2nc(-c3ccccc3)c[nH]2)c1OC | 55.2 (≈ 15.5 µg/mL)
Fc1cc(-c2nc(-c3cccc(C(F)(F)F)c3)c[nH]2)cc(C(F)(F)F)c1 | 6 (≈ 2.25 µg/mL)
COc1cc(-c2nc(-c3cccc(C(F)(F)F)c3)c[nH]2)cc(C(F)(F)F)c1 | 7.3 (≈ 2.82 µg/mL)
FC(F)(F)c1cccc(-c2c[nH]c(-c3cc(C(F)(F)F)cc(C(F)(F)F)c3)n2)c1 | 7.7 (≈ 3.27 µg/mL)
Cc1[nH]c(-c2cccc(C(F)(F)F)c2)nc1-c1cccc(C(F)(F)F)c1 | 14 (≈ 5.18 µg/mL)
Cn1cc(-c2cccc(C(F)(F)F)c2)nc1-c1cccc(C(F)(F)F)c1 | 7.9 (≈ 2.93 µg/mL)
Clc1cccc(-c2c[nH]c(-c3ccccc3)n2)c1 | 60.3 (≈ 15.4 µg/mL)

Structure (SMILES) | MIC90 [µM]
Clc1ccc(-c2c[nH]c(-c3ccccc3)n2)cc1 | 59.5 (≈ 15.2 µg/mL)
COc1ccc(-c2nc(-c3ccccc3)c[nH]2)cc1 | 119 (≈ 29.9 µg/mL)
COc1cccc(-c2nc(-c3ccccc3)c[nH]2)c1 | 73.7 (≈ 18.4 µg/mL)
FC(F)(F)c1cccc(-c2nc(-c3ccccc3)c[nH]2)c1 | 30.6 (≈ 8.82 µg/mL)
O=[N+]([O-])c1ccc(-c2c[nH]c(-c3ccccc3)n2)cc1 | > 128
O=[N+]([O-])c1cccc(-c2nc(-c3ccccc3)c[nH]2)c1 | 60.6 (≈ 16.1 µg/mL)
COc1ccc(-c2c[nH]c(-c3ccccc3)n2)cc1 | 82.4 (≈ 20.6 µg/mL)
FC(F)(F)c1ccc(-c2c[nH]c(-c3ccccc3)n2)cc1 | > 128
FC(F)(F)c1cccc(-c2c[nH]c(-c3ccc(Cl)cc3)n2)c1 | 29.8 (≈ 9.62 µg/mL)
Clc1cccc(-c2nc(-c3ccccc3)c[nH]2)c1 | 60.4 (≈ 15.4 µg/mL)
Clc1ccc(-c2nc(-c3ccccc3)c[nH]2)cc1 | 59.8 (≈ 15.2 µg/mL)
c1ccc(-c2c[nH]c(-c3ccsc3)n2)cc1 | 107 (≈ 24.3 µg/mL)
FC(F)(F)c1ccc(-c2nc(-c3ccccc3)c[nH]2)cc1 | 48.9 (≈ 14.1 µg/mL)
FC(F)(F)c1cccc(-c2c[nH]c(-c3cccc(C(F)(F)F)c3)n2)c1 | 1.7 (≈ 0.606 µg/mL)
c1ccc(-c2c[nH]c(C3CCCCC3)n2)cc1 | 125 (≈ 28.2 µg/mL)
NNC(=O)c1ccncc1 [ISONIAZID] | 0.1 (≈ 0.0137 µg/mL)
CO[C@H]1/C=C/O[C@@]2(C)Oc3c(C)c(O)c4c(O)c(c(/C=N/N5CCN(C)CC5)c(O)c4c3C2=O)NC(=O)/C(C)=C\C=C\[C@H](C)[C@H](O)[C@@H](C)[C@@H](O)[C@@H](C)[C@H](OC(C)=O)[C@@H]1C [RIFAMPIN] | 0.05 (≈ 0.0411 µg/mL)
